# Read-outs that look alike come from different tables or passages of the source.
# Experiment: Plasma and tissue distribution in SD rats
# Assay type: in vivo
# Settings: for Tissue/Plasma Ratio (AUCinf) / Kp: SD rat; for Kp: rat, oral, read-out: Tissue/Plasma Ratio (AUCinf); for Cmax / Tmax / half-life / AUC0-inf / AUC0-24 / AUC0-last: PO 10 mg/kg
# From the text: The following Example describes the methods and data used to evaluate the tissue distribution of TYK2 inhibitors following the administration of either compound 1 or compound 2.
# Thirty (30, 15/sex) SD rats supplied by Beijing Vital River Laboratory Animal Technology Co., Ltd. were used in this study. The animals were confirmed to be healthy before being assigned to the study. The room (s) was controlled and monitored for relative humidity (targeted mean range 40% to 70%) and temperature (targeted mean range 20° C. to 26° C.) with 15 or above air changes/hour. The room was on a 12-hour light/dark cycle except when interruptions were necessitated by study activities. Fresh drinking water (reverses osmosis) was available to all animals, ad libitum. Certified animal diet from certified vendor was available to all animals, ad libitum.
# Animals were weighed prior to dose administration to calculate the actual dose volume. The body weights were in the range from 245.39 to 276.33 g for males and 182.29 to 215.69 g for females on the first dosing day. The animals in Groups 1 and 2 received a single oral gavage administration of test compound 1. Cage-side observations for the general health condition and appearance of the animal were performed before and after dosing and at each time point of sample collection. Unusual observations were recorded throughout the duration of the study.
# The vehicle was 0.5% methyl cellulose (4000 cps) in water. The formulation was prepared according to the following steps. Group 1: 25.95 mg of compound 1 was weighed into a glass vial. 5000 μL of vehicle was added into the vial and stirred for 30 min at 1700 rpm to get a homogenous opaque suspension. 5000 μL of vehicle was added into the vial and stirred for 10 min at 1700 rpm to get a homogenous opaque suspension. 5000 μL+5000 μL+5000 μL+924 μL of vehicle was added into the vial and stirred for 10 min at 1700 rpm to get a homogenous opaque suspension. Group 2: 81.66 mg of compound 1 was weighed into a glass vial. 5000 μL of vehicle was added into the vial and stirred for 30 min at 1700 rpm to get a homogenous opaque suspension. 5000 μL of vehicle was added into the vial and stirred for 10 min at 1700 rpm to get a homogenous opaque suspension. 10 mL+10 mL+10 mL+20 mL+10 mL+10 mL+1580 μL of vehicle was added into the vial and stirred for 10 min at 1700 rpm to get a homogenous opaque suspension.
# Blood (about 0.2 mL) was collected at each time point via jugular vein puncture from each study animal. The actual time for each sample collection was recorded. The acceptable deviations on sampling time were ±1 min for the time points pre-dose through 1 hour post-dose, and +5% of the nominal time for time points after 1 hour post-dose.
# All blood samples were transferred into commercial tubes containing K2-EDTA. After blood was collected, the samples were placed on wet ice and processed for plasma within 60 minutes of collection by centrifugation at approximately 4° C., 3200×g for 10 minutes, and then quickly frozen over dry ice and kept at −60° C. or lower until LC-MS/MS analysis.
# Following terminal blood sample collection, animals were conducted CO2 euthanasia, the chest and abdominal cavities were opened carefully lengthwise using scissors to expose the internal organs in preparation of tissue perfusion. A needle was used to puncture a small hole into the left ventricle of the heart, and then clamped with a hemostat. […] Fluid (cold 1×PBS) was infused until the liver pales (typically 2-3 minutes). Following perfusion, 14 kinds of tissues (spleen, bone marrow, adipose, brain, heart, kidney, liver, lung, skin, small intestine, large intestine, eye, gonads, and bladder) were collected from each animal, respectively.
# Each tissue was weighed and homogenized on wet ice using homogenizing buffer (MeOH/15 mM PBS 1:2) at the ratio of 1:9 (1 g tissue with 9 mL buffer). The tissue homogenate was kept at −60° C. or lower until LC-MS/MS analysis. […]
# [1] = Sprague-Dawley, epididymis and testis, male SD rat, Epididymis & Testis
# [2] = Sprague-Dawley, male SD rat, Eyeball (left and right)
# [3] = Sprague-Dawley, male SD rat, Fat
# [4] = Sprague-Dawley, male SD rat, Heart
# [5] = Sprague-Dawley, male SD rat, Kidney (left and right)
# [6] = Sprague-Dawley, male SD rat, Large intestine
# [7] = Sprague-Dawley, plasma, female SD rat
# [8] = Sprague-Dawley, plasma, male SD rat
# [9] = female SD rat, Eyeball (left and right)
# [10] = female SD rat, Kidney (left and right)
smiles,measurement,setting,value
"C[C@@H](c1ccc(Nc2cc(Nc3ncccc3S(C)(=O)=O)ncn2)nc1)N1CC2(COC2)C1 [Compound 1, (S)—N^4-(5-(1-(2-oxa-6-azaspiro[3.3]heptan-6-yl)ethyl)pyridin-2-yl)-N^6-(3-(methylsulfonyl)pyridin-2-yl)pyrimidine-4,6-diamine]",Tissue/Plasma Ratio (AUCinf),Kidney,9.1
same,Tissue/Plasma Ratio (AUCinf),Large Intestine,13
same,Kp,"Sprague-Dawley (SD), bone marrow / plasma, Bone Marrow",4.3
same,Cmax,[1],350 ng/g
same,Tmax,[1],8 h
same,Kp,"Sprague-Dawley, adipose, Adipose",0.59
same,Kp,"Sprague-Dawley, bladder, Bladder",5
same,Kp,"Sprague-Dawley, eye, Eye",0.8
same,Kp,"Sprague-Dawley, kidney, Kidney",~9
same,Kp,"Sprague-Dawley, large intestine, Large Intestine",~13
same,Kp,"Sprague-Dawley, liver, Liver",7.6
same,Kp,"Sprague-Dawley, lung, Lung",2
same,Kp,"Sprague-Dawley, skin, Skin",3.2
same,Kp,"Sprague-Dawley, small intestine, Small Intestine",21
same,Kp,"Sprague-Dawley, spleen, Spleen",5.4
same,Cmax,[2],327 ng/g
same,Tmax,[2],0.5 h
same,half-life,[2],4.03 h
same,Cmax,[3],464 ng/g
same,Tmax,[3],0.5 h
same,half-life,[3],3.08 h
same,Cmax,[4],1260 ng/g
same,Tmax,[4],0.5 h
same,half-life,[4],2.31 h
same,Cmax,[5],6140 ng/g
same,Tmax,[5],0.5 h
same,half-life,[5],3.79 h
same,Cmax,[6],5180 ng/g
same,Tmax,[6],8 h
same,Cmax,[7],1180 ng/mL
same,Tmax,[7],0.5 h
same,half-life,[7],2.39 h
same,AUC0-inf,"Sprague-Dawley, plasma, female SD rat, read-out: AUC0-inf",3610 ng·h/mL
same,Cmax,[8],1370 ng/mL
same,Tmax,[8],0.667 h
same,half-life,[8],2.75 h
same,AUC0-inf,"Sprague-Dawley, plasma, male SD rat, read-out: AUC0-inf",2920 ng·h/mL
same,AUC0-24,"female SD rat, Bladder",17454 ng·h/g
same,AUC0-inf,"female SD rat, Bladder",17693 ng·h/g
same,AUC0-last,"female SD rat, Bladder",17454 ng·h/g
same,Cmax,"female SD rat, Bladder",4150 ng/g
same,Tmax,"female SD rat, Bladder",2 h
same,half-life,"female SD rat, Bladder",3.61 h
same,AUC0-24,"female SD rat, Bone Marrow",17781 ng·h/g
same,AUC0-inf,"female SD rat, Bone Marrow",17791 ng·h/g
same,AUC0-last,"female SD rat, Bone Marrow",15823 ng·h/g
same,Cmax,"female SD rat, Bone Marrow",3840 ng/g
same,Tmax,"female SD rat, Bone Marrow",0.5 h
same,half-life,"female SD rat, Bone Marrow",2.52 h
same,AUC0-24,[9],3253 ng·h/g
same,AUC0-inf,[9],3348 ng·h/g
same,AUC0-last,[9],3253 ng·h/g
same,Cmax,[9],449 ng/g
same,Tmax,[9],2 h
same,half-life,[9],4.51 h
same,AUC0-24,"female SD rat, Fat",1725 ng·h/g
same,AUC0-last,"female SD rat, Fat",1725 ng·h/g
same,Cmax,"female SD rat, Fat",417 ng/g
same,Tmax,"female SD rat, Fat",2 h
same,AUC0-24,"female SD rat, Heart",5608 ng·h/g
same,AUC0-inf,"female SD rat, Heart",5627 ng·h/g
same,AUC0-last,"female SD rat, Heart",4754 ng·h/g
same,Cmax,"female SD rat, Heart",1280 ng/g
same,Tmax,"female SD rat, Heart",0.5 h
same,half-life,"female SD rat, Heart",2.88 h
same,AUC0-24,[10],36323 ng·h/g
same,AUC0-inf,[10],36373 ng·h/g
same,AUC0-last,[10],36323 ng·h/g
same,Cmax,[10],7800 ng/g
same,Tmax,[10],0.5 h
same,half-life,[10],2.46 h
same,AUC0-24,"female SD rat, Large intestine",39634 ng·h/g
same,AUC0-last,"female SD rat, Large intestine",39634 ng·h/g
same,Cmax,"female SD rat, Large intestine",4670 ng/g
same,Tmax,"female SD rat, Large intestine",8 h
same,AUC0-24,"female SD rat, Liver",29588 ng·h/g
same,AUC0-inf,"female SD rat, Liver",29655 ng·h/g
same,AUC0-last,"female SD rat, Liver",29588 ng·h/g
same,Cmax,"female SD rat, Liver",6310 ng/g
same,Tmax,"female SD rat, Liver",0.5 h
same,half-life,"female SD rat, Liver",2.67 h
same,AUC0-24,"female SD rat, Lung",8773 ng·h/g
same,AUC0-last,"female SD rat, Lung",8773 ng·h/g
same,Cmax,"female SD rat, Lung",2180 ng/g
same,Tmax,"female SD rat, Lung",2 h
same,AUC0-24,"female SD rat, Ovary & Uterus",5024 ng·h/g
same,AUC0-inf,"female SD rat, Ovary & Uterus",5028 ng·h/g
same,AUC0-last,"female SD rat, Ovary & Uterus",4408 ng·h/g
same,AUC0-24,"female SD rat, Skin",3803 ng·h/g
same,AUC0-last,"female SD rat, Skin",3803 ng·h/g
same,Cmax,"female SD rat, Skin",893 ng/g
same,Tmax,"female SD rat, Skin",2 h
same,AUC0-24,"female SD rat, Small intestine",59880 ng·h/g
same,AUC0-inf,"female SD rat, Small intestine",59932 ng·h/g
same,AUC0-last,"female SD rat, Small intestine",59880 ng·h/g
same,Cmax,"female SD rat, Small intestine",12300 ng/g
same,Tmax,"female SD rat, Small intestine",0.5 h
same,half-life,"female SD rat, Small intestine",2.3 h

# — US20260048051A1, “TREATMENT OF INFLAMMATORY BOWEL DISEASE” (Atomwise Inc., priority 2024, published 2026)
